For one series, the system named is 32D cells. Description: MTT cell proliferation assay, general cytotoxicity. The format is cell-based. As for the experimental part:
(§1) First, a cell-proliferation assay was performed on the immortalized myeloblast-like cell line 32D cells to evaluate general cytotoxicity. […] We also evaluated cytotoxicity using primary hematopoietic cells.
(§2) To evaluate the toxicity of our top compounds, we performed a cell proliferation assay using 32D cells as well as leukemia cell lines and myeloma cell lines. Weihi-3 cells were cultured at 37 °C under 5% CO2 in RPMI 1640 medium supplemented with 10%FBS. After 48 h, the supernatant was collected and filtered. 32D cells were cultured in RPMI 1640 with 10% FBS and 10% supernatant collected from Weihi-3 cells. 8,000 32D cells or leukemia cell line (KG-1 or KG-1a) or myeloma cell line (MM.1S or RPMI 8226) were plated in a 96-well plate in 198 μL culture media per well, and then cultured (37 °C, 5% CO2) overnight. 2 μL of serially diluted compounds dissolved in saline or DMSO were added to each well and incubated (37 °C, 5% CO2) for 72 h. The concentration of DMSO was equal to the one in corresponding compound group. 20 μL of MTT solution was added to each well and then incubated (37 °C, 5% CO2) for 4 h. The percentage of cell survival was determined using the MTT assay, as previously described. The data was analyzed using GraphPad Prism v6.0.
A general note: Tetrazolium assays rely on reduction of a dye to a coloured formazan, in cell work by metabolically active cells.

In the next series the test system is MM.1S. Description: MTT proliferation assay on myeloma cell line. The format is cell-based.
Text: (§3) With confirmation of compound 40 promoting the expansion of HSCs, we further examined whether it might also increase the risk of malignant diseases. In order to determine the effect of compound 40 on hematological tumorigenesis, proliferation of both leukemia cell lines (KG-1 and KG-1a) and myeloma cell lines (MM.1S and RPMI 8226) was further investigated by a standard MTT assay.
as §2
(§4) (1 picture or pasted object on this page, not shown here)

The next series deals with RPMI 8226. The series is described as follows: MTT proliferation assay on myeloma cell line. The format is cell-based.
Text: as §3, §2, §4

For series [1], the system named is c-Kit enriched BM cells (primary hematopoietic cells). The series is described as follows: apoptosis analysis by Annexin V staining. As to conditions: effective concentration (20 μM), 5 days, compared with negative control group. The format is cell-based. As for the experimental part: as §1
Figure 6 Cytotoxicity assessment of top p18SMI compounds. (A) Cell proliferation assay was performed on 32D cells to evaluate general cytotoxicity. The cell survival was determined by the MTT assay. (B) Apoptosis statistics analysis of cultured c-Kit enriched BM cells which were cultured with cytokine plus 20 μM compound 40 or DMSO. Uncultured bone marrow cells were irradiated by UV to serve as positive control. Apoptosis was checked by Annexin V staining on hematopoietic cells. (C,D) Proliferation effect of compound 40 on leukemia cell lines KG-1 and KG-1a. The cell survival was determined with the MTT assay. Data is mean ± SEM for all experiments of two or more and were performed in duplicate or triplicate.
c-Kit enriched BM cells were cultured for 5 days with cytokine combination plus compound 40 or DMSO. […] Apoptosis and cell death were measured by AnnexinV and DAPI staining according to the manufacturer’s instructions in the Annexin V-FITC Apoptosis Detection Kit (BD Biosciences). Apoptosis was measured on an FACS analyzer (LSR Fortessa, BD Biosciences). The data was analyzed using FlowJo software (Treestar, Inc.).

For a further series, the system named is HSCs (CD34−LKS cells). Description: single hematopoietic stem cell in vitro culture (nmEM colony) assay. The format is cell-based, mouse. To be noted: 12.5 nM, 14-day treatment. Here is the method:
We biologically assessed the 22 putative p18SMI compounds for their ability to maintain HSCs stem cell characteristics, to be specific self-renewal and multi-lineage differentiation, using single cell cultures. […] Thus, we employed single HSC culture to assess p18SMI compounds’ effect upon HSCs. CD34^−LKS cells from C57BL/6 mice were individually deposited into a 96-well plate (one cell/well). The single cell was cultured for 14 days in 100 μL of serum-free medium (Gibco) containing 100 ng/mL of mouse stem cell factor (SCF), 10 ng/mL of mouse interleukin-3 (IL-3), 25 ng/mL of human thrombopoietin (TPO), 2 U/mL of human erythropoietin (EPO) and differing concentrations of the p18SMI compound. Cells were cultured 14 days for in vitro colony formation and colonies were then cytospined and analyzed by flow cytometry to test the subpopulation of cultured cells. Neutrophils (n), macrophages (m), erythroblasts (E) or megakaryocytes (M) were identified by the cell marker of Gr-1, Mac-1, Ter-119 and CD41 using flow cytometry. The wells from each group that generated all lineages (nmEM) were counted and the ratio to the control group (DMSO) was calculated.
Single CD34^-LKS cells from C57BL/6 mice were individually deposited into each well of a 96-well plate along with 100 μL of serum free medium (Gibco) containing 100 ng/mL of mouse SCF, 10 ng/mL of mouse IL-3, 25 ng/mL of human TPO, 2 U/mL of human EPO and p18SMI compounds (different dilutions). Cells were cultured in a 37 °C, 5% CO2 incubator for 14 days for ex vivo colony formation. Colonies were then cytospined and analyzed using flow cytometry. Neutrophils (n), macrophages (m), erythroblasts (E) or megakaryocytes (M) were identified based on their cell surface maker, Gr-1, Mac-1, Ter119 and CD41. Cells were measured on an FACS analyzer (FACSArray, BD Biosciences). […] The wells from each group that generated all lineages (nmEM) were counted. The ratio of p18SMI compound treatment group to the control group (DMSO-treated) was calculated and fitted to a curve to calculate the ED50 value using GraphPad Prism v6.0.

SMILES strings stand for the structures. Entries after “also recorded” stand apart in the source; their conditions may differ.

For `O=C([O-])c1ccc(S(=O)(=O)NC2CCCCC2)cc1.[Na+]` [Compound 40, sodium 4-(N-cyclohexylsulfamoyl)benzoate], the “cytotoxicity toward 32D cells” value in the series on 32D cells is “did not show significant cytotoxicity; also recorded: not cytotoxic”. Moreover, the “cytotoxic effects (cell viability, MTT)” value with 32D cells (25 μM) is recorded as “did not show any cytotoxic effects”. The “cell viability (MTT)” value with 32D cells (50 μM, thought to be due to cytotoxicity of the solvent DMSO) is “only slight decreases in cell viability”. Also, the “enhancement of proliferation (MTT)” value in the series on MM.1S (5 μM) and with RPMI 8226 (5 μM) was “did not enhance” throughout. In addition, the “effect on myeloma cell line” value with MM.1S (high concentration (20 μM)) and in the series on RPMI 8226 (high concentration (20 μM)) was “no effect” each time. For the same molecule, the “cytotoxicity / apoptotic cell death in primary hematopoietic cells (HSCs)” value in series [1] is “did not show significant cytotoxicity; also recorded: did not increase apoptotic cell death; also recorded: not cytotoxic”. The “increase of nmEM colonies as compared to the control group” value in the series with HSCs (CD34−LKS cells) is 3.16 fold.

The values are drawn from paper PMC4683533, “Discovery of novel INK4C small-molecule inhibitors to promote human and murine hematopoietic stem cell ex vivo expansion” (Scientific Reports, 2015).
